System: ovarian (MDAH2774) cancer cells
Experiment: Protein transfection efficiency by flow cytometry
Format: cell-based, human
Settings: transfected using HEPES buffer (20-30 mM)
Procedure: FIG. 1 depicts the method of protein transfection in its simplest form: (A) proteins of interest and a protein transfection composition, such as HEPES buffer, are mixed and incubated for about 15 min to about 30 min (“the first incubation time”) to form a mixture. (B) Cells to be transfected are cultured with a first cultured medium comprising at least about 10% fetal bovine serum for about 24 hours, followed by the replacement of the first cultured medium with a minimal essential medium. (C) The mixture in step (A) is added to the cells in minimal essential medium in Step (B) and incubated at 37° C. for about 4 to about 24 hours (“the second incubation time”). (D) The protein transfection efficiency can be analyzed using various methods, such as immunofluorescent staining and flow cytometry. Flow cytometry: After protein transfection was completed, the cells in the culture dish were washed with PBS, trypsinized and pelleted. The cells were mixed with Fixation/Permeabilization (eBioscience, Inc., San Diego, Calif., USA) working solution and incubated at 4° C. for 30 min to 24 h. […] Cells were suspended in 1×PBS and analyzed by flow cytometry (BD Biosciences, Qume Drive San Jose, Calif., USA). […] The protein transfection efficiency can be analyzed using immunofluorescent staining or flow cytometry (Panel D). […]

rhSTIP1: v5-tagged recombinant human STIP1 protein (BiP-STIP1-V5-His), 62.6 kDa
transfection efficiency: signal detected in % of the ovarian cancer cells: 99.6%

From patent publication US20180221487A1, “NOVEL PROTEIN TRANSFECTION COMPOSITIONS AND USES THEREOF” (Chang Gung Memorial Hospital, Linkou, priority 2017, published 2018)
